# Reference: patent publication US8501783B2, “Conformationally restricted urea inhibitors of soluble epoxide hydrolase” (The Regents of the University of California, priority 2006, dated 2013)
# System: not listed separately
# Assay: Pharmacokinetic screening in dogs, oral administration, plasma LC-MS/MS
# Settings: dog, plasma, po, 0.3 mg/kg
row,Compound,AUC [µM·h]
1,"CC(=O)N1CCC(CNC(=O)NC23CC4CC(CC(C4)C2)C3)CC1 [Compound 1156, N-((1-acetylpiperidin-4-yl)methyl)-N′-(adamant-1-yl)urea]",0.0817

# Molecular target: human sEH (Homo sapiens (Human), UniProt P34913)
# Sequence (P34913 whole entry): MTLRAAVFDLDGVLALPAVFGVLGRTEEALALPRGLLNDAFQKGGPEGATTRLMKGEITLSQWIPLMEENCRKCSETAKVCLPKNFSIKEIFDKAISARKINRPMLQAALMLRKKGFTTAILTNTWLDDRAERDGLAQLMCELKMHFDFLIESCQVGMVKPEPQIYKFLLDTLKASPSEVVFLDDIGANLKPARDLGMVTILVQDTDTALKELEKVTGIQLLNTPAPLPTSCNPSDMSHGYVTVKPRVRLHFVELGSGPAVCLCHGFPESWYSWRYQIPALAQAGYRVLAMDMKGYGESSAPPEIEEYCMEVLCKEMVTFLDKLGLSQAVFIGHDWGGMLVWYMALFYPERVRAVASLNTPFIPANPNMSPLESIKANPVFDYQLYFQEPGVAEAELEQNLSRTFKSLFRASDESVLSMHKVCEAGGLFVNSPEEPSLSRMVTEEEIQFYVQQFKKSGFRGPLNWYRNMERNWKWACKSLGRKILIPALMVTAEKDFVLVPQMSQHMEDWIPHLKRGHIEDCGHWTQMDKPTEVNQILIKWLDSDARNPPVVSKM
# Assay: Inhibition of human soluble epoxide hydrolase (IC50; one of three substrate methods);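 also: enzyme expressed in baculovirus and affinity-purified, assays run in triplicate, with substrate and read-out differing among the three methods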
# Type: biochemical
# Settings: not given
row,Compound,IC50 [nM]
1,"O=C(NC1CCN(C(=O)c2cccc(C(=O)O)c2)CC1)NC12CC3CC(CC(C3)C1)C2 [Compound 1505, 3-[4-(3-Adamantan-1-yl-ureido)-piperidine-1-carbonyl]-benzoic acid]",10.1
2,"O=C(O)CCCC(=O)N1CCC(NC(=O)NC23CC4CC(CC(C4)C2)C3)CC1 [Compound 1501, 5-[4-(3-Adamantan-1-yl-ureido)-piperidin-1-yl]-5-oxo-pentanoic acid]",72.8
3,"O=C(NC1CCN(C(=O)c2cccnc2)CC1)NC12CC3CC(CC(C3)C1)C2 [Compound 1434, N-(1-(Pyridine-3-carbonyl)piperidin-4-yl)-N′-(adamant-1-yl)urea]",2.1
4,"O=C(NC1CCN(C(=O)c2ccccc2C(=O)O)CC1)NC12CC3CC(CC(C3)C1)C2 [Compound 1507, 2-[4-(3-Adamantan-1-yl-ureido)-piperidine-1-carbonyl]-benzoic acid]",161

# Same assay, conditions: recombinant human sEH
row,Compound,IC50 [nM]
1,"Cc1c(COC(=O)NCc2ccncc2)cccc1-c1ccccc1 [Compound 1558, Pyridin-4-ylmethyl-carbamic acid 2-methyl-biphenyl-3-ylmethyl ester]",1330
2,"O=C(NC1CCCCC1)NC12CN3CN(CN(C3)C1)C2 [Compound 1549, 1-Cyclohexyl-3-(1,3,5-triaza-tricyclo[3.3.1.1^3.7]dec-7-yl)-urea]",13600
3,"O=C(Oc1cccc(-c2ccccc2)c1)N1CCOCC1 [Compound 1561, Morpholine-4-carboxylic acid biphenyl-3-yl ester]",65300
4,"Cc1ccc(S(=O)(=O)N2CCC(NC(=O)Nc3ccc(OC(F)(F)F)cc3)CC2)cc1 [Compound 1711, 1-[1-(Toluene-4-sulfonyl)-piperidin-4-yl]-3-(4-trifluoromethoxy-phenyl)-urea]",0.4
5,"O=C(N1CCC(NC(=O)C23CC4CC(CC(C4)C2)C3)CC1)C(F)(F)F [Compound 1643, Adamantane-1-carboxylic acid [1-(2,2,2-trifluoro-acetyl)-piperidin-4-yl]-amide]",4210
6,"O=C(O)CCCC(=O)N1CCC(CNC(=O)NC23CC4CC(CC(C4)C2)C3)CC1 [Compound 1500, 5-{4-[(3-Adamantan-1-yl-ureido)-methyl]-piperidin-1-yl}-5-oxo-pentanoic acid]",41.6
7,O=C(NC1CCCCC1)NC1CCNCC1 [Compound 1602],562
8,"CC(C)(C)OC(=O)N1CCC(NC(=O)NC2CCCCC2)CC1 [Compound 1551, 4-(3-Cyclohexyl-ureido)-piperidine-1-carboxylic acid tert-butyl ester]",4.3
9,O=C(NCC1CCN(C(=O)C(F)(F)F)CC1)NC12CC3CC(CC(C3)C1)C2 [Compound 1556],1.8
10,O=C(NCC1CCN(C(=O)c2ccccn2)CC1)NC12CC3CC(CC(C3)C1)C2 [Compound 1207],7.6
11,"Cc1c(COC(=O)NCc2cccnc2)cccc1-c1ccccc1 [Compound 1560, Pyridin-3-ylmethyl-carbamic acid 2-methyl-biphenyl-3-ylmethyl ester]",4410
12,"COC(=O)c1cccc(C(=O)N2CCC(CNC(=O)NC34CC5CC(CC(C5)C3)C4)CC2)c1 [Compound 1209, 3-{4-[(3-Adamantan-1-yl-ureido)-methyl]-piperidine-1-carbonyl}-benzoic acid methy ester]",4.1
13,"O=C(Nc1ccc(OC(F)(F)F)cc1)NC1CCN(C(=O)C(F)(F)F)CC1 [Compound 1591, 1-[1-(2,2,2-Trifluoro-acetyl)-piperidin-4-yl]-3-(4-trifluoromethoxy-phenyl)-urea]",0.4
14,"O=C(NCC1CCN(C(=O)c2cccnc2)CC1)NC12CC3CC(CC(C3)C1)C2 [Compound 1436, N-((1-(pyridine-3-carbonyl)piperidin-4-yl)methyl)-N′-(adamant-1-yl)urea]",7.3
15,"CN(C)c1cccc2c(S(=O)(=O)N3CCC(NC(=O)Nc4ccc(OC(F)(F)F)cc4)CC3)cccc12 [Compound 1710, 1-[1-(5-dimethylamino-naphthalene-1-sulfonyl)-piperidin-4-yl]-3-(4-trifluoromethoxy-phenyl)-urea]",0.8
16,"O=C(NCC1CCN(C(=O)c2ccccc2C(=O)O)CC1)NC12CC3CC(CC(C3)C1)C2 [Compound 1506, 2-{4-[(3-Adamantan-1-yl-ureido)-methyl]-piperidine-1-carbonyl}-benzoic acid]",407
17,"O=C(Nc1ccc(OC(F)(F)F)cc1)NC1CCNCC1 [Compound 1570, 1-Piperidin-4-yl-3-(4-trifluoromethoxy-phenyl)-urea]",2320
18,"COC(=O)CCC(=O)N1CCC(CNC(=O)NC23CC4CC(CC(C4)C2)C3)CC1 [Compound 1208, 4-{4-[(3-Adamantan-1-yl-ureido)-methyl]-piperidin-1-yl}-4-oxo-butanoic acid methyl ester]",6.2
19,"O=C(NC1CCNCC1)NC1CCNCC1 [Compound 1604, 1,3-Di-piperidin-4-yl-urea]",100000
20,"COC(=O)c1ccc(C(=O)N2CCC(CNC(=O)NC34CC5CC(CC(C5)C3)C4)CC2)cc1 [Compound 1211, 4-{4-[(3-Adamantan-1-yl-ureido)-methyl]-piperidine-1-carbonyl}-benzoic acid methyl ester]",1.5
21,"COC(=O)c1ccccc1C(=O)N1CCC(CNC(=O)NC23CC4CC(CC(C4)C2)C3)CC1 [Compound 1210, 2-{4-[(3-Adamantan-1-yl-ureido)-methyl]-piperidine-1-carbonyl}-benzoic acid methy ester]",1.8
22,"CCCCCCCCCCCCNC(=O)Nc1ccc2[nH]ccc2c1 [Compound 1553, 1-Dodecyl-3-(1H-indol-5-yl)-urea]",639
23,Morpholine-4-carboxylic acid 2-methyl-biphenyl-3-ylmethyl ester [Compound 1562],12000
24,"O=C(Nc1ccc2[nH]cnc2c1)NC1CCCCC1 [Compound 1569, 1-(1H-Benzoimidazol-5-yl)-3-cyclohexyl-urea]",457
25,"CCCCCCCCCCCCNC(=O)NC1CCNCC1 [Compound 1550, 1-Dodecyl-3-piperidin-4-yl-urea]",42.5
26,"O=C(NCC1CCN(C(=O)c2cccc(C(=O)O)c2)CC1)NC12CC3CC(CC(C3)C1)C2 [Compound 1504, 3-{4-[(3-Adamantan-1-yl-ureido)-methyl]-piperidine-1-carbonyl}-benzoic acid]",43.6
27,"COC(=O)c1ccccc1C(=O)N1CCC(NC(=O)NC23CC4CC(CC(C4)C2)C3)CC1 [Compound 1202, 2-[4-(3-Adamantan-1-yl-ureido)-piperidine-1-carbonyl]-benzoic acid methyl ester]",1.7
28,"O=C(Nc1ccc2[nH]ccc2c1)NC1CCCCC1 [Compound 1554, 1-Cyclohexyl-3-(1H-indol-5-yl)-urea]",87
29,"CC(=O)N1CCC(NC(=O)C23CC4CC(CC(C4)C2)C3)CC1 [Compound 1641, Adamantane-1-carboxylic acid (1-acetyl-piperidin-4-yl)-amide]",12600
30,"O=C(O)CCC(=O)N1CCC(CNC(=O)NC23CC4CC(CC(C4)C2)C3)CC1 [Compound 1502, 4-{4-[(3-Adamantan-1-yl-ureido)-methyl]-piperidin-1-yl}-4-oxo-butanoic acid]",174
